Experimental findings from ChEMBL document CHEMBL3867456, “Vetiverianines A, B, and C: Sesquiterpenoids from Vetiveria zizanioides Roots” (J Nat Prod, 2016) are described below.

The test is described as follows: Cytotoxicity against human HL60 cells assessed as cell growth inhibition after 72 hrs by MTT assay. It counts as functional, cell-based. The settings on record: HL-60, 72 h. (In general: Tetrazolium assays rely on reduction of a dye to a coloured formazan, in cell work by metabolically active cells.)

Broadly, the IC50 is the concentration that inhibits the measured activity by half. `C[C@@H]1CCC=C2CC[C@]3(C[C@]21C)O[C@]3(C)CO`: the IC50 came to 57.7 µM.

Turning to `COc1cc([C@@H]2c3cc4c(cc3[C@@H](O[C@@H]3O[C@@H]5CO[C@@H](C)O[C@H]5[C@H](O)[C@H]3O)[C@H]3COC(=O)[C@H]23)OCO4)cc(OC)c1O` [ETOPOSIDE], the IC50 amounted to 0.3 µM.
